Key:
[1] = test system: TGF-β1; assay: Effect of NAALADase inhibition on TGF-β1 in in vitro ischemia model; type: cell-based; conditions: ischemic cell cultures, FIG. 1
Method: (§1) A NAALADase inhibitor, Compound C, was added to ischemia cell cultures to determine its effect on TGF-β levels during stroke.

[2] = test system: TGF-β2; assay: Effect of NAALADase inhibition on TGF-β2 in in vitro ischemia model; type: cell-based; conditions: ischemic cell cultures, FIG. 2
Method: as §1

[3] = test system: ischemic cell cultures; assay: Neuroprotective effect in in vitro ischemia model with growth factor neutralizing antibodies; type: cell-based
Method: TGF-β neutralizing antibodies were then added to the ischemic cell cultures.

[4] = test system: TGF-β1; assay: TGF-β1 levels in MCAO rats assessed by microdialysis; type: in vivo; conditions: during both occlusion and reperfusion, FIG. 6
[5] = test system: rats subjected to middle cerebral artery occlusion; assay: Neuroprotective effect in MCAO rats with TGF-β neutralizing antibodies; type: in vivo; conditions: FIG. 5
Text: The effect of TGF-β neutralizing antibodies on the neuroprotective effect of Compound C was also studied in rats following MCAO.
One of ordinary skill in the art can appreciate that the regulation of TGF-β's by NAALADase inhibitors may have implications not only in stroke, but also in other diseases, disorders and conditions including, without limitation, neurological diseases, psychiatric diseases, demyelinating diseases, prostate cancer, inflammation, diabetes and angiogenesis.

[6] = test system: chronic constrictive injury-induced rats; assay: Neuropathic pain in CCI model (sciatic nerve ligation, thermal hyperalgesia); type: in vivo; conditions: 50 mg/kg i.p. daily starting 10 days post surgery
Method: Sciatic nerve ligation, consisting of 4 ligatures tied loosely around the sciatic nerve at 1 mm intervals proximal to the nerve trifurcation, was performed on rats. […] The rats were habituated to a Hargreaves apparatus. An infrared heat source was directed onto the dorsal surface of each rat's hindpaws and the time taken for the rat to withdraw its paws was noted. The difference in scores between the latency of the response for the paw on the operated side versus the paw on the unoperated control side was determined.
The rats were treated with either Compound 49 (10, 1 or 0.1 mg/kg) or a vehicle for 15 days after sciatic nerve ligation. Thermal pain responses were measured at days 0, 1, 5, 8, 11 and 15. The differences in scores for the rats treated with a vehicle and the rats treated with Compound 49 are graphically presented in FIGS. 13-15.
The rats were treated with either Compound 5 (50, 30, 10, 3, 1 or 0.3 mg/kg) or a vehicle for 12 (or 15) days after sciatic nerve ligation. Thermal pain responses were measured at days 0, 1, 5, 8 and 12 (and 15). The differences in scores for the rats treated with a vehicle and the rats treated with Compound 5 are graphically presented in FIGS. 17-22.
The rats received either Compound C (50 mg/kg i.p. daily) or a vehicle starting 10 days post surgery. […] Normal (unoperated) rats had approximately equal latencies for both paws. This effect was significant starting at 11 days of drug treatment and persisted through to the end of the study (for 21 days of daily dosing).

## O=C(O)CCC(CP(=O)(O)O)C(=O)O (centres unmarked) [Compound C, 2-(phosphonomethyl)pentanedioic acid]
[1]
  TGF-β1 concentrations: increased concentrations
[2]
  TGF-β2 concentrations: increased concentrations
[3]; FIG. 3
  neuroprotective effect in the presence of TGF-β neutralizing antibodies: blocked
[3]; FIG. 4
  neuroprotective effect in the presence of FGF antibody: did not block
[4]
  TGF-β1 levels: significant rise
[5]
  neuroprotective effect in vivo in the presence of TGF-β neutralizing antibodies: significantly attenuated
[6]
  time of drug treatment from which the effect was significant: 11 days
[6]; FIG. 8
  difference scores between the two paws: dramatically normalized
